ChEMBL document CHEMBL5316307, “Searching for Novel Noncovalent Nuclear Export Inhibitors through a Drug Repurposing Approach” (J Med Chem, 2023)
pIC50, pKd: −log10 of the molar value. Active and inactive are the calls of the source. The calls are words filed in the database; no cut-off is given here.

Assays:
Exportin-1 [1] = molecular target: T1, Exportin-1 (Homo sapiens, UniProt O14980); assay: Inhibition of human CRM1 at 50 uM by GST-NES MVM based pulldown assay
HGC-27 = assay: Cytotoxicity against human HGC-27 cells assessed as inhibition of cell growth incubated for 72 hrs by SRB assay; type: functional, cell-based; conditions: HGC-27, 72 h
Exportin-1 [2] = molecular target: T1, Exportin-1; assay: Binding affinity to CRM1 in human HeLa cells assessed as thermal stabilization at 100 uM at 4 to 90 degreeC incubated for 3 mins by […] analysis; type: cell-based
Exportin-1 [3] = molecular target: T1, Exportin-1; assay: Inhibition of human CRM1 at 3 to 30 uM by GST-NES MVM based pulldown assay; conditions: dose 3-30 µM
Exportin-1 [4] = molecular target: T1, Exportin-1; assay: Non-covalent inhibition of human CRM1 at 100 uM by GST-NES MVM based pulldown assay
[5] = Stability of the compound at 100 uM in presence of DTT; type: physicochemical
MDA-MB-453 [6] = assay: Synergistic cytotoxicity against human MDA-MB-453 cells assessed as combination index at 100 uM incubated for 3 days in presence of 30 nM doxorubicin by SRB assay; type: functional; conditions: time 3 day
Exportin-1 [7] = molecular target: T1, Exportin-1; assay: Competitive inhibition of human CRM1 assessed as dissociation constant incubated in presence of RanGTP and IAF-conjugated protein kinase inhibitor peptide by MST assay
Exportin-1 [8] = molecular target: T1, Exportin-1; assay: Binding affinity to NES groove of human CRM1 C7 fragment at 50 to 100 uM by GST-NES MVM based pulldown assay; conditions: dose 50-100 µM
Exportin-1 [9] = molecular target: T1, Exportin-1; assay: Inhibition of CRM1 in intact human HeLa cells transfected with GFP-NES-NLS fusion plasmid assessed as inhibition of nuclear export of cargoes at 200 uM incubated for 30 mins by immunostaining analysis; type: cell-based
Exportin-1 [10] = molecular target: T1, Exportin-1; assay: Inhibition of CRM1 in semi-permeabilized human HeLa cells transfected with GFP-NES-NLS fusion plasmid assessed as inhibition of nuclear export of cargoes at 50 to 100 uM incubated for 30 mins by immunostaining analysis; type: cell-based; conditions: dose 50-100 µM
MDA-MB-453 [11] = assay: Synergistic cytotoxicity against human MDA-MB-453 cells assessed as combination index at 100 uM incubated for 3 days in presence of 10 nM doxorubicin by SRB assay; type: functional; conditions: time 3 day
[12] = tested on: Exportin-1 (Homo sapiens), O14980 [C528S]; assay: Inhibition of human CRM1 C7 fragment C528S mutant at 50 to 100 uM by GST-NES MVM based pulldown assay; conditions: dose 50-100 µM
MDA-MB-453 [13] = assay: Synergistic cytotoxicity against human MDA-MB-453 cells assessed as combination index at 100 uM incubated for 3 days in presence of 90 nM doxorubicin by SRB assay; type: functional; conditions: time 3 day
MDA-MB-453 [14] = assay: Synergistic cytotoxicity against human MDA-MB-453 cells assessed as combination index at 100 uM incubated for 3 days in presence of 270 nM doxorubicin by SRB assay; type: functional; conditions: time 3 day
MDA-MB-453 [15] = assay: Synergistic cytotoxicity against human MDA-MB-453 cells assessed as combination index at 100 uM incubated for 3 days in presence of 810 nM doxorubicin by SRB assay; type: functional; conditions: time 3 day
Ishikawa = assay: Cytotoxicity against human Ishikawa cells assessed as inhibition of cell growth at 50 uM incubated for 72 hrs by SRB assay; type: functional, cell-based
MDA-MB-453 [16] = assay: Cytotoxicity against human MDA-MB-453 cells assessed as inhibition of cell growth at 50 uM incubated for 72 hrs by SRB assay; type: functional, cell-based
A2780 = assay: Cytotoxicity against human A2780 cells assessed as inhibition of cell growth at 50 uM incubated for 72 hrs by SRB assay; type: functional, cell-based
PANC-1 = assay: Cytotoxicity against human PANC-1 cells assessed as inhibition of cell growth at 50 uM incubated for 72 hrs by SRB assay; type: functional, cell-based
SW480 = assay: Cytotoxicity against human SW480 cells assessed as inhibition of cell growth at 50 uM incubated for 72 hrs by SRB assay; type: functional, cell-based
MGC-803 = assay: Cytotoxicity against human MGC-803 cells assessed as inhibition of cell growth at 50 uM incubated for 72 hrs by SRB assay; type: functional, cell-based
HeLa = assay: Cytotoxicity against human HeLa cells assessed as inhibition of cell growth at 50 uM incubated for 72 hrs by SRB assay; type: functional, cell-based
HepG2 = assay: Cytotoxicity against human HepG2 cells assessed as inhibition of cell growth at 50 uM incubated for 72 hrs by SRB assay; type: functional, cell-based

T1 sequence (O14980 whole entry): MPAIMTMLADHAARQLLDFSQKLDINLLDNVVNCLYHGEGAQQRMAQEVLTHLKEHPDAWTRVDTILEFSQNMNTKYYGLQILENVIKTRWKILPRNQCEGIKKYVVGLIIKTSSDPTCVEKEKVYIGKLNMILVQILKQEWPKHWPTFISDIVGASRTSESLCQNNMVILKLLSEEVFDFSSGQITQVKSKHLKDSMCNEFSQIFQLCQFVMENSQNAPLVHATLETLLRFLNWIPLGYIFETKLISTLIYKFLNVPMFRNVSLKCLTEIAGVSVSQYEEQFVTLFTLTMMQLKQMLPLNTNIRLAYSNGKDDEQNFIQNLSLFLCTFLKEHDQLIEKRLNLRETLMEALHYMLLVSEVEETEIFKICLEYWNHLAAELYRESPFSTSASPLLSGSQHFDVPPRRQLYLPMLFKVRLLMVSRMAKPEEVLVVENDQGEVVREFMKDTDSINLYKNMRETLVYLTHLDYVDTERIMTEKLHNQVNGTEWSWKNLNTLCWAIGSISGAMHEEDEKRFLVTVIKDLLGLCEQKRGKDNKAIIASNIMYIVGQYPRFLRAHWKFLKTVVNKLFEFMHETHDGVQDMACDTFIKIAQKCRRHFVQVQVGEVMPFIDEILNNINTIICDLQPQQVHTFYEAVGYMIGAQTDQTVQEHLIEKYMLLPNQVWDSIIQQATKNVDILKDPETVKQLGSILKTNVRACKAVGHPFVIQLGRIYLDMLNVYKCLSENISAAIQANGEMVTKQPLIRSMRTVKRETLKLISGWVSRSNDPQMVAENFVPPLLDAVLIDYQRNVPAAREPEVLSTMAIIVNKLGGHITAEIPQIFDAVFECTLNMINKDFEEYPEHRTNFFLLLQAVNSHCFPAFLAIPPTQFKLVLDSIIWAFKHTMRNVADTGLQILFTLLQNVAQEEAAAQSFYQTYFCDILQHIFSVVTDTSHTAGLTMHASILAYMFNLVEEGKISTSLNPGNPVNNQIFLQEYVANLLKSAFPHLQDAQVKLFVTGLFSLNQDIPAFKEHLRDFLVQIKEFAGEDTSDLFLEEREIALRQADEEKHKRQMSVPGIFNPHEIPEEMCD
Sequence of Exportin-1 (Homo sapiens), O14980 [C528S] (O14980 whole entry C528S, the tested form may be a part): as the sequence (O14980 whole entry) above, with C528S counted along it

What does the source list for `COc1cc(C(=O)N(C)S(=O)(=O)c2ccccc2C)ccc1Cc1cn(C)c2ccc(NC(=O)OC3CCCC3)cc12`?
inhibition (Exportin-1 [1]): inactive; inhibition (Exportin-1 [1]; tested as the 2H-labelled form): inactive; pIC50 (HGC-27): 3.55; Activity (Exportin-1 [2]): inactive

Which inhibition (Exportin-1 [3]) does the source give for `COc1cc(C(=O)NS(=O)(=O)c2cccc(C)c2)ccc1Cc1cn(C)c2ccc(NC(=O)OC3CCCC3)cc12` here?
The inhibition was “Active”.

And the pIC50 (HGC-27)?
The pIC50 was 4.36.

Which inhibition (Exportin-1 [4]) does the source give for `N[C@@H](CC(=O)N1CCn2c(nnc2C(F)(F)F)C1)Cc1cc(F)c(F)cc1F` here?
The inhibition was “inactive”.

Which results are given for `COC(=O)Nc1ccc2c(c1)c(Cc1ccc(C(=O)NS(=O)(=O)c3ccccc3C)cc1OC)cn2C`?
inhibition (Exportin-1 [3]): Active; pIC50 (HGC-27): 4.36

For `CC(O)(CS(=O)(=O)c1ccc(F)cc1)C(=O)Nc1ccc(C#N)c(C(F)(F)F)c1` (stereo unspecified), which inhibition (Exportin-1 [4]) is on record?
The inhibition was “inactive”.

For `CC(C)CCNC/C=C/[S+]([O-])c1cc(C(F)(F)F)cc(C(F)(F)F)c1` (stereo unspecified), which Stability [5] is on record?
The Stability was “Unstable”.

With `[2H]C([2H])([2H])N(C(=O)c1ccc(Cc2cn(C)c3ccc(NC(=O)OC4CCCC4)cc23)c(OC)c1)S(=O)(=O)c1ccccc1C` as the compound, how does the pIC50 (HGC-27) read?
The pIC50 was 3.34.

With `COc1cc(C(=O)NS(=O)(=O)c2ccc(C)cc2)ccc1Cc1cn(C)c2ccc(NC(=O)OC3CCCC3)cc12` as the compound, how does the pIC50 (HGC-27) read?
The pIC50 was 4.36.

With `COc1cc(C(=O)NS(=O)(=O)c2ccccc2C)ccc1Cc1cn(C)c2ccc(NC(=O)OC3CCCC3)cc12` [ZAFIRLUKAST] as the compound, how does the CI (MDA-MB-453 [6]) read?
The CI was 0.78.

What about the pKd (Exportin-1 [7]) of the same compound?
The pKd was 5.00.

What about the Stability [5] of the same compound?
Its Stability is “Stable”.

What about the Activity (Exportin-1 [8]) of the same compound?
Its Activity is “Active”.

And the inhibition (Exportin-1 [4])?
Its inhibition is “Active”.

And the inhibition (Exportin-1 [9])?
The inhibition was “Active”.

What about the inhibition (Exportin-1 [10]) of the same compound?
Its inhibition is “Active”.

And the CI (MDA-MB-453 [11])?
The CI was 0.78.

And the inhibition [12]?
The inhibition was “inactive”.

And the CI (MDA-MB-453 [13])?
Its CI is 0.78.

And the CI (MDA-MB-453 [14])?
The CI was 0.88.

And the CI (MDA-MB-453 [15])?
Its CI is 0.58.

What about the pIC50 (HGC-27) of the same compound?
The pIC50 was 4.36.

And the Activity (Exportin-1 [2])?
The Activity was “Active”.

And the inhibition (Ishikawa)?
Its inhibition is “Active”.

What about the inhibition (MDA-MB-453 [16]) of the same compound?
Its inhibition is “Active”.

What about the inhibition (A2780) of the same compound?
Its inhibition is “Active”.

And the inhibition (PANC-1)?
Its inhibition is “Active”.

And the inhibition (SW480)?
Its inhibition is “Active”.

What about the inhibition (MGC-803) of the same compound?
The inhibition was “Active”.

What about the inhibition (HeLa) of the same compound?
The inhibition was “Active”.

What about the inhibition (HepG2) of the same compound?
The inhibition was “Active”.

With `O=C(/C=C\n1cnc(-c2cc(C(F)(F)F)cc(C(F)(F)F)c2)n1)NNc1cnccn1` as the compound, how does the inhibition [12] read?
The inhibition was “Active”.
